Laboratory results as given in patent publication US9078444B2, “Isothiazoline derivatives as insecticidal compounds” (Syngenta Participations AG, priority 2011, dated 2015).

How the values were obtained:
Type in all cases: in vivo
Plutella xylostella = Plutella xylostella (diamond back moth) artificial diet test; conditions: 144 h, 200 ppm (concentration in well 18 ppm), L2 larvae, larval mortality and growth regulation after 6 days
Experimental: (§1) Plutella xylostella (Diamond Back Moth): 24-well microtiter plate (MTP) with artificial diet was treated with test solutions at an application rate of 200 ppm (concentration in well 18 ppm) by pipetting. After drying, the MTPs were infested with L2 larvae (7-12 per well). After an incubation period of 6 days, samples were checked for larval mortality and growth regulation.

Diabrotica balteata = Diabrotica balteata (corn root worm) artificial diet test; conditions: 120 h, 200 ppm (concentration in well 18 ppm), L2 larvae, larval mortality and growth regulation after 5 days
Experimental: as §1, with “Diabrotica balteata (Corn Root Worm): A” for “Plutella xylostella (Diamond Back Moth):”, “(6-10” for “(7-12”, “5” for “6”

Heliothis virescens = Heliothis virescens (tobacco budworm) egg test on artificial diet; conditions: 96 h, 200 ppm (concentration in well 18 ppm), eggs on artificial diet, egg mortality, larval mortality, growth regulation after 4 days
Experimental: Heliothis virescens (Tobacco Budworm): Eggs (0-24 h old) were placed in 24-well microtiter plate on artificial diet and treated with test solutions at an application rate of 200 ppm (concentration in well 18 ppm) by pipetting. After an incubation period of 4 days, samples were checked for egg mortality, larval mortality, and growth regulation.

Thrips tabaci = Thrips tabaci (onion thrips) sunflower leaf disc test; conditions: foliar, 168 h, 200 ppm sprayed on sunflower leaf discs, mixed ages, mortality after 7 days
Experimental: Thrips tabaci (Onion Thrips): Sunflower leaf discs were placed on agar in a 24-well microtiter plate and sprayed with test solutions at an application rate of 200 ppm. After drying, the leaf discs were infested with a thrips population of mixed ages. After an incubation period of 7 days, samples were checked for mortality.

Spodoptera littoralis = Spodoptera littoralis (Egyptian cotton leafworm) cotton leaf disc test; conditions: foliar, 72 h, 200 ppm sprayed on cotton leaf discs, mortality, feeding behavior, growth regulation 3 days after treatment
Experimental: Spodoptera littoralis (Egyptian Cotton Leafworm): Cotton leaf discs were placed on agar in a 24-well microtiter plate and sprayed with test solutions at an application rate of 200 ppm. After drying, the leaf discs were infested with […]. The samples were checked for mortality, feeding behavior, and growth regulation 3 days after treatment (DAT).

Tetranychus urticae = Tetranychus urticae (two-spotted spider mite) bean leaf disc test; conditions: foliar, 192 h, 200 ppm sprayed on bean leaf discs, mixed ages, egg, larval and adult mortality 8 days later
From the text: Tetranychus urticae (Two-Spotted Spider Mite): Bean leaf discs on agar in 24-well microtiter plates were sprayed with test solutions at an application rate of 200 ppm. After drying, the leaf discs are infested with mite populations of mixed ages. 8 days later, discs are checked for egg mortality, larval mortality, and adult mortality.

Measured: pest or weed control at 200 ppm

Cc1cc(C2=NSC(c3cc(Cl)cc(Cl)c3)(C(F)(F)F)C2)ccc1C(=O)NCC(F)(F)F (stereo not shown) [Compound A03]
≥ 80%: Plutella xylostella | Diabrotica balteata | Heliothis virescens | Thrips tabaci | Spodoptera littoralis | Tetranychus urticae

CCNC(=O)c1ccc(C2=NSC(c3cc(Cl)cc(Cl)c3)(C(F)(F)F)C2)cc1C (stereo not shown) [Compound A04]
≥ 80%: Plutella xylostella | Diabrotica balteata | Heliothis virescens | Thrips tabaci | Spodoptera littoralis | Tetranychus urticae

CCCCNC(=O)c1ccc(C2=NSC(c3cc(Cl)cc(Cl)c3)(C(F)(F)F)C2)cc1C (stereo not shown) [Compound A05]
≥ 80%: Plutella xylostella | Diabrotica balteata | Heliothis virescens | Thrips tabaci | Spodoptera littoralis | Tetranychus urticae

COCC(C)NC(=O)c1ccc(C2=NSC(c3cc(Cl)cc(Cl)c3)(C(F)(F)F)C2)cc1C (stereo not shown) [Compound A06]
≥ 80%: Plutella xylostella | Diabrotica balteata | Heliothis virescens | Thrips tabaci | Spodoptera littoralis | Tetranychus urticae

Cc1cc(C2=NSC(c3cc(Cl)cc(Cl)c3)(C(F)(F)F)C2)ccc1C(=O)NCCC(F)(F)F (stereo not shown) [Compound A07]
≥ 80%: Plutella xylostella | Diabrotica balteata | Heliothis virescens | Thrips tabaci | Spodoptera littoralis | Tetranychus urticae

CCC(C)NC(=O)c1ccc(C2=NSC(c3cc(Cl)cc(Cl)c3)(C(F)(F)F)C2)cc1C (stereo not shown) [Compound A08]
≥ 80%: Plutella xylostella | Diabrotica balteata | Heliothis virescens | Thrips tabaci | Spodoptera littoralis | Tetranychus urticae

Cc1cc(C2=NSC(c3cc(Cl)cc(Cl)c3)(C(F)(F)F)C2)ccc1C(=O)NCC1CCCO1 (stereo not shown) [Compound A09]
≥ 80%: Plutella xylostella | Diabrotica balteata | Heliothis virescens | Thrips tabaci | Spodoptera littoralis | Tetranychus urticae

Cc1cc(C2=NSC(c3cc(Cl)cc(Cl)c3)(C(F)(F)F)C2)ccc1C(=O)NCc1ccccc1 (stereo not shown) [Compound A10]
≥ 80%: Plutella xylostella | Diabrotica balteata | Heliothis virescens | Thrips tabaci | Spodoptera littoralis | Tetranychus urticae

Cc1cc(C2=NSC(c3cc(Cl)cc(Cl)c3)(C(F)(F)F)C2)ccc1C(=O)NCc1ccccc1F (stereo not shown) [Compound A11]
≥ 80%: Plutella xylostella | Diabrotica balteata | Heliothis virescens | Thrips tabaci | Spodoptera littoralis | Tetranychus urticae

COc1ccc(CNC(=O)c2ccc(C3=NSC(c4cc(Cl)cc(Cl)c4)(C(F)(F)F)C3)cc2C)cc1 (stereo not shown) [Compound A13]
≥ 80%: Plutella xylostella | Diabrotica balteata | Heliothis virescens | Thrips tabaci | Spodoptera littoralis | Tetranychus urticae

Cc1cc(C2=NSC(c3cc(Cl)cc(Cl)c3)(C(F)(F)F)C2)ccc1C(=O)NCc1ccc(Cl)nc1 (stereo not shown) [Compound A14]
≥ 80%: Plutella xylostella | Diabrotica balteata | Heliothis virescens | Thrips tabaci | Spodoptera littoralis | Tetranychus urticae

Cc1cc(C2=NSC(c3cc(Cl)cc(Cl)c3)(C(F)(F)F)C2)ccc1C(=O)Nc1cccc(F)c1 (stereo not shown) [Compound A15]
≥ 80%: Plutella xylostella | Diabrotica balteata | Heliothis virescens | Thrips tabaci | Spodoptera littoralis | Tetranychus urticae

Cc1cc(NC(=O)c2ccc(C3=NSC(c4cc(Cl)cc(Cl)c4)(C(F)(F)F)C3)cc2C)n(C)n1 (stereo not shown) [Compound A17]
≥ 80%: Plutella xylostella | Diabrotica balteata | Heliothis virescens | Thrips tabaci | Spodoptera littoralis | Tetranychus urticae

Cc1csc(NC(=O)c2ccc(C3=NSC(c4cc(Cl)cc(Cl)c4)(C(F)(F)F)C3)cc2C)n1 (stereo not shown) [Compound A18]
≥ 80%: Plutella xylostella | Diabrotica balteata | Heliothis virescens | Thrips tabaci | Spodoptera littoralis | Tetranychus urticae

Cc1cc(C2=NSC(c3cc(Cl)cc(Cl)c3)(C(F)(F)F)C2)ccc1C(=O)NC1(C)CSC1 (stereo not shown) [Compound A19]
≥ 80%: Plutella xylostella | Diabrotica balteata | Heliothis virescens | Thrips tabaci | Spodoptera littoralis | Tetranychus urticae

CSCC(C)(C)NC(=O)c1ccc(C2=NSC(c3cc(Cl)cc(Cl)c3)(C(F)(F)F)C2)cc1C (stereo not shown) [Compound A20]
≥ 80%: Plutella xylostella | Diabrotica balteata | Heliothis virescens | Spodoptera littoralis | Tetranychus urticae

Cc1cc(C2=NSC(c3cc(Cl)cc(Cl)c3)(C(F)(F)F)C2)ccc1C(=O)NC1C[S+]([O-])C1 (stereo not shown) [Compound A21]
≥ 80%: Plutella xylostella | Diabrotica balteata | Heliothis virescens | Thrips tabaci | Spodoptera littoralis | Tetranychus urticae

Cc1cc(C2=NSC(c3cc(Cl)cc(Cl)c3)(C(F)(F)F)C2)ccc1C(=O)NC1CCSC1=O (stereo not shown) [Compound A37]
≥ 80%: Plutella xylostella | Diabrotica balteata | Heliothis virescens | Spodoptera littoralis | Tetranychus urticae

Cc1cc(C2=NSC(c3cc(Cl)cc(Cl)c3)(C(F)(F)F)C2)ccc1C(=O)Nc1cc[n+]([O-])cc1 (stereo not shown) [Compound A41]
≥ 80%: Plutella xylostella | Heliothis virescens | Spodoptera littoralis

Cc1cc(C2=NSC(c3cc(Cl)cc(Cl)c3)(C(F)(F)F)C2)ccc1C(=O)NC1=NCCS1 (stereo not shown) [Compound A44]
≥ 80%: Plutella xylostella | Diabrotica balteata | Heliothis virescens | Spodoptera littoralis

Cc1cc(C)nc(NC(=O)c2ccc(C3=NSC(c4cc(Cl)cc(Cl)c4)(C(F)(F)F)C3)cc2C)n1 (stereo not shown) [Compound A47]
≥ 80%: Spodoptera littoralis

CCN(CC)C(=O)c1cccc(NC(=O)c2ccc(C3=NSC(c4cc(Cl)cc(Cl)c4)(C(F)(F)F)C3)cc2C)n1 (stereo not shown) [Compound A49]
≥ 80%: Plutella xylostella | Diabrotica balteata | Heliothis virescens | Spodoptera littoralis | Tetranychus urticae

Cc1cc(C2=NSC(c3cc(Cl)cc(Cl)c3)(C(F)(F)F)C2)ccc1C(=O)Nc1ccccn1 (stereo not shown) [Compound A56]
≥ 80%: Plutella xylostella | Diabrotica balteata | Heliothis virescens | Thrips tabaci | Spodoptera littoralis

Cc1cc(C2=NSC(c3cc(Cl)cc(Cl)c3)(C(F)(F)F)C2)ccc1C(=O)NCc1ccc(C(F)(F)F)cc1 (stereo not shown) [Compound A57]
≥ 80%: Plutella xylostella | Diabrotica balteata | Heliothis virescens | Spodoptera littoralis | Tetranychus urticae

Cc1cc(C2=NSC(c3cc(Cl)cc(Cl)c3)(C(F)(F)F)C2)ccc1C(=O)Nc1ccc(C(F)(F)F)cc1 (stereo not shown) [Compound A58]
≥ 80%: Plutella xylostella | Diabrotica balteata | Heliothis virescens | Thrips tabaci | Spodoptera littoralis

Cc1ccc(NC(=O)c2ccc(C3=NSC(c4cc(Cl)cc(Cl)c4)(C(F)(F)F)C3)cc2C)cc1 (stereo not shown) [Compound A64]
≥ 80%: Plutella xylostella | Diabrotica balteata | Heliothis virescens | Thrips tabaci | Spodoptera littoralis
